The values that follow come from US11951149B2, “Intranasal vasopressin treatment of social deficits in autism” (The Board of Trustees of the Leland Stanford Junior …, priority 2018, dated 2024).

Data set [1] relates to children with ASD. Description: Height and weight, change from baseline, 4-week trial. The class given is in vivo, human. To be noted: after 4-week treatment. Here is the method:
Commercially available injectable sterile AVP was used in this study. It was initially purchased from JHP Pharmaceuticals (Rochester, MI), which was subsequently acquired by Par Sterile Products (Chestnut Ridge, NY) in 2014. The placebo solution was prepared by Koshland Pharm (San Francisco, CA) and consisted of ingredients used in the active solution except the AVP compound. A pharmacist transferred 25 mL of AVP (20 International Units (IU)/mL) or placebo solutions into sterile amber glass bottles with metered (0.1 mL/per puff) nasal spray applicators to ensure that the AVP and placebo applicators were visually indistinguishable to the research team. […]
Parents were trained in the clinic by research staff to administer the nasal spray to their child. […] Vital signs were monitored before, and 20 minutes after, initial single-dose nasal spray administration to monitor for acute, unanticipated reactions to AVP. […]
Throughout the trial, safety and tolerability were assessed weekly using the following measurements: vital signs, 12-lead electrocardiogram, clinical chemistry labs, and height and weight. Side effects were evaluated with the DOTES (51), and modified to assess potential side effects that might be related to AVP such as hyponatremia/water intoxication. […]

The subject of data set [2] is children with ASD. The data set can be described thus: Clinical chemistry, change from baseline, 4-week trial. The data set is classed as in vivo, human. The note with it: after 4-week treatment. On the procedure: (§1) Commercially available injectable sterile AVP was used in this study. It was initially purchased from JHP Pharmaceuticals (Rochester, MI), which was subsequently acquired by Par Sterile Products (Chestnut Ridge, NY) in 2014. The placebo solution was prepared by Koshland Pharm (San Francisco, CA) and consisted of ingredients used in the active solution except the AVP compound. A pharmacist transferred 25 mL of AVP (20 International Units (IU)/mL) or placebo solutions into sterile amber glass bottles with metered (0.1 mL/per puff) nasal spray applicators to ensure that the AVP and placebo applicators were visually indistinguishable to the research team. These applicators were coded and given to the Stanford Health Care's Investigational Drug Service (IDS) for refrigerated storage (2-8° C.) and subsequent dispensing. Following the first AVP dose (see below), the dose escalation regimen for all participants involved administration of 4 IU twice daily (or BID) of AVP during week 1 and 8 IU BID of AVP during week 2. Participants aged 6 to 9.5 years then received 12 IU BID of AVP during weeks 3 and 4, while participants aged 9.6 to 12.92 years received 16 IU BID of AVP during weeks 3 and 4.
(§2) Parents were trained in the clinic by research staff to administer the nasal spray to their child. The first dose was administered in the ADDC under the direct supervision of the research team (with the first dose being 12 IU for participants aged 6 to 9.5 years and 16 IU for participants aged 9.6 to 12.92 years). Vital signs were monitored before, and 20 minutes after, initial single-dose nasal spray administration to monitor for acute, unanticipated reactions to AVP. Participants' parents then received two 25 mL nasal spray bottles containing either AVP or placebo for 4 weeks of at-home dispensing (as described above), for which they were responsible for their child's continued twice daily dosing. Parents were instructed to keep the bottles refrigerated with only brief room temperature excursions (i.e., for dosing). Participants underwent weekly safety/tolerability assessments in the clinic to monitor for adverse events. On completion of the 4-week treatment period, behavioral data, safety/tolerability data, and blood samples were again collected. After completion of the trial, participants randomized to the placebo group were invited to participate in an optional open-label 4-week AVP treatment phase to ensure that all children had the opportunity to receive AVP treatment.
(§3) Throughout the trial, safety and tolerability were assessed weekly using the following measurements: vital signs, 12-lead electrocardiogram, clinical chemistry labs, and height and weight. Side effects were evaluated with the DOTES (51), and modified to assess potential side effects that might be related to AVP such as hyponatremia/water intoxication. Finally, based on animal studies showing that AVP can induce aggressive behavior under some circumstances (39, 40), the OAS was used to monitor for observable aggressive or violent behavior in this trial (52).
Whole blood was drawn from the child's antecubital region by a pediatric phlebotomist using standard protocols at Lucile Packard Children's Hospital outpatient laboratory. A portion of the sample was collected per standard laboratory protocols and sent for clinical chemistry analysis. To evaluate AVP concentrations, whole blood was also collected into chilled EDTA-treated vacutainer tubes and immediately placed on wet ice. Samples were promptly centrifuged (1600×g at 4° C. for 15 min), the plasma fraction aliquoted into polypropylene tubes, and flash-frozen on dry ice. Whole blood was also collected into PAXgene RNA tubes (Qiagen, CA) and processed per manufacturer instruction to evaluate neuropeptide receptor gene expression [i.e., oxytocin receptor (OXTR) and AVPR1A]. All samples were stored at −80° C. until quantification. […]

Data set [3] has as its system children with ASD. Description: Adverse events assessed by the DOTES and OAS, 4-week trial. The class given is in vivo, human. On the procedure: as §1, §2, §3
One-way LS-GLMs were used to test the change from baseline between the AVP and placebo treatment groups following 4-week treatment for adverse events and safety measures. Fisher's exact Test was used to test for differences between treatment conditions for participant characteristics and concomitant medications. Suitable transformations were applied as needed.

The conditions of data set [4]: intranasal administration; cited from earlier work.
For data set [5], the system named is children with ASD. Description: 12-lead electrocardiogram, change from baseline, 4-week trial. The data set is classed as in vivo, human. The note with it: after 4-week treatment. On the procedure: as §1, §2, §3
(§4) Treatment effect generalizability was evaluated using: 1) the RBS-R which measures a comprehensive list of repetitive and stereotyped behaviors (61); and 2) The Spence Children's Anxiety Scale which assesses the severity of trait anxiety symptoms broadly in line with DSM dimensions of anxiety disorder (62). Anxiety was selected as an outcome measure due to its significant comorbidity with ASD (63). Finally, safety and tolerability were evaluated using: 1) the DOTES (51); and 2) change from baseline in electrocardiogram, clinical chemistry labs, vital signs (i.e., blood pressure, heart rate, temperature), as well as height and weight.
(§5) One-way LS-GLMs were used to test the change from baseline between the AVP and placebo treatment groups following 4-week treatment for adverse events and safety measures. […]

Data set [6] has as its system children with ASD. The data set can be described thus: Vital signs, change from baseline, 4-week trial. The data set is classed as in vivo, human. The note with it: after 4-week treatment. Here is the method:
as §1, §2, §3, §4, §5

Data set [7] has as its system high-functioning adults with ASD. The note with it: single dose intravenous, cited from earlier work.
The test system of a further data set is ASD in children. Description: Intranasal administration of desmopressin in children with ASD. The data set is classed as in vivo, human.
Setting [8] is: Dermatological, 4-week treatment, N = 17.
Where [9] appears, read: Gastrointestinal, 4-week treatment, N = 17.
[10] abbreviates: General, 4-week treatment, N = 17.
[11] abbreviates: HEENT, 4-week treatment, N = 17.
Setting [12] is: Neurological/Psychiatric, 4-week treatment, N = 17.
The mark [13] stands for this setting: Renal, 4-week treatment, N = 17.
Setting [14] is: post hoc sub-test, not corrected for multiple comparisons.

`NC(=O)CC[C@@H]1NC(=O)[C@H](Cc2ccccc2)NC(=O)[C@H](Cc2ccc(O)cc2)NC(=O)[C@@H](N)CSSC[C@@H](C(=O)N2CCC[C@H]2C(=O)N[C@@H](CCCN=C(N)N)C(=O)NCC(N)=O)NC(=O)[C@H](CC(N)=O)NC1=O` [AVP, arginine vasopressin]: in the data set with children with ASD [1], the “Change from baseline LSM +/− SE: Height” value is recorded as 0.8 ± 0.23 centimeters and the “Changes from baseline in physiological measures” value is given as “No significant changes from baseline”. In addition, in the data set on children with ASD [2], the “Change from baseline LSM +/− SE: Anion Gap” value was -0.65 ± 0.78 mmol/L, the “Change from baseline LSM +/− SE: CO2” value is -0.12 ± 0.57 mmol/L, the “Change from baseline LSM +/− SE: Calcium” value worked out at 0.047 ± 0.07 mg/dL and the “Change from baseline LSM +/− SE: Chloride” value came out at 1.0 ± 0.56 mmol/L. Further, in the data set on children with ASD [2], the “Change from baseline LSM +/− SE: Creatine” value is -0.017 ± 0.03 mg/dL, the “Change from baseline LSM +/− SE: Glucose” value worked out at 2.2 ± 4.41 mg/dL, the “Change from baseline LSM +/− SE: Osmolality (Serum)” value is listed as 0.18 ± 1.01 mOsm/kg and the “Change from baseline LSM +/− SE: Osmolality (Urine)” value was 8.5 ± 82.6 mOsm/kg. Moreover, in the data set on children with ASD [2], the “Change from baseline LSM +/− SE: Potassium” value came out at 0.15 ± 0.11 mmol/L, the “Change from baseline LSM +/− SE: Sodium” value was 0.24 ± 0.63 mmol/L, the “Change from baseline LSM +/− SE: Urea Nitrogen” value was -1.3 ± 0.78 mg/dL and the “Changes from baseline in clinical chemistry” value is “No significant changes from baseline”. The Tolerability entry in the data set with children with ASD [3] (4-week intranasal treatment) is listed as “well tolerated with minimal adverse effects”. For the same compound, in the data set on children with ASD [3] (4-week treatment, parent ratings), the “Adverse event rates compared to placebo-treated group (DOTES, OAS)” value is reported as “no significant differences”. In addition, in the data set on children with ASD [3] (setting [8]), the “Adverse event: Bug bite” value was 1 (6%) counts and percentages; the “Adverse event: Skin burn” value is 0 (0%) counts and percentages; the “Adverse event: Skin rash” value is 1 (6%) counts and percentages. In the data set with children with ASD [3] (setting [9]), the “Adverse event: Constipation” value is 1 (6%) counts and percentages; the “Adverse event: Decreased appetite” value is 4 (24%) counts and percentages; the “Adverse event: Diarrhea” value was 0 (0%) counts and percentages; the “Adverse event: Nausea/vomiting” value was 2 (12%) counts and percentages. In the data set on children with ASD [3] (setting [10]), the “Adverse event: Body ache” value was 1 (6%) counts and percentages; the “Adverse event: Cough” value is 1 (6%) counts and percentages; the “Adverse event: Fever” value was 2 (12%) counts and percentages. For the same compound, in the data set with children with ASD [3] (setting [11]), the “Adverse event: Blurred vision” value was 1 (6%) counts and percentages; the “Adverse event: Cold sore” value was 0 (0%) counts and percentages; the “Adverse event: Dry mouth” value was 1 (6%) counts and percentages; the “Adverse event: Ear infection” value was 0 (0%) counts and percentages. In the data set with children with ASD [3] (setting [11]), the “Adverse event: Nasal congestion” value is 3 (18%) counts and percentages; the “Adverse event: Runny nose” value was 0 (0%) counts and percentages; the “Adverse event: Sore throat” value was 0 (0%) counts and percentages. In the data set on children with ASD [3] (setting [12]), the “Adverse event: Aggression” value was 1 (6%) counts and percentages; the “Adverse event: Akathisia” value is 1 (6%) counts and percentages; the “Adverse event: Decreased motor activity” value is 1 (6%) counts and percentages; the “Adverse event: Depressive affect” value was 2 (12%) counts and percentages. Also, in the data set with children with ASD [3] (setting [12]), the “Adverse event: Dizziness” value is 0 (0%) counts and percentages; the “Adverse event: Drowsiness” value is 1 (6%) counts and percentages; the “Adverse event: Excitement/agitation” value was 4 (24%) counts and percentages; the “Adverse event: Head banging” value was 1 (7%) counts and percentages. For the same compound, in the data set on children with ASD [3] (setting [12]), the “Adverse event: Headache” value was 2 (12%) counts and percentages; the “Adverse event: Increased motor activity” value is 4 (24%) counts and percentages; the “Adverse event: Insomnia” value is 4 (24%) counts and percentages; the “Adverse event: Lethargy/tiredness” value is 0 (0%) counts and percentages. In the data set with children with ASD [3] (setting [13]), the “Adverse event: Bed wetting” value is 1 (6%) counts and percentages; the “Adverse event: Increased urination” value is 1 (6%) counts and percentages. In addition, the “Cerebrospinal fluid (CSF) concentrations of measured AVP” value in data set [4] is “elevated”. Also, the “Changes from baseline in 12-lead electrocardiogram” value in the data set with children with ASD [5] is listed as “No significant changes from baseline”. Besides, in the data set with children with ASD [5] (electrocardiogram), the “Change from baseline LSM +/− SE: Bazett’s Corrected QT Interval” value is -1.9 ± 5.07 ms, the “Change from baseline LSM +/− SE: Heart Rate” value is recorded as −2.5 ± 3.75 bpm, the “Change from baseline LSM +/− SE: P Duration” value was -2.6 ± 5.76 ms and the “Change from baseline LSM +/− SE: PR Intervals” value was -4.6 ± 6.40 ms. In addition, in the data set with children with ASD [5] (electrocardiogram), the “Change from baseline LSM +/− SE: QRS Interval” value is reported as 0.4 ± 1.55 ms and the “Change from baseline LSM +/− SE: QT Interval” value was 3.5 ± 5.53 ms. In the data set with children with ASD [6], the “Change from baseline LSM +/− SE: BP Change Diastolic (Standin-Sitting)” value is recorded as −3.1 ± 2.65; the “Change from baseline LSM +/− SE: BP Change Systolic (Standing-Sitting)” value is given as −3.6 ± 2.76; the “Change from baseline LSM +/− SE: BP, Diastolic, Sitting” value stood at 3.2 ± 2.09 mmHg; the “Change from baseline LSM +/− SE: BP, Diastolic, Standing” value was found to be 0.1 ± 2.31 mmHg. Moreover, in the data set with children with ASD [6], the “Change from baseline LSM +/− SE: BP, Systolic, Sitting” value came to 5.5 ± 2.53 mmHg; the “Change from baseline LSM +/− SE: BP, Systolic, Standing” value is given as 1.9 ± 2.38 mmHg; the “Change from baseline LSM +/− SE: Pulse change” value came to 2.1 ± 2.75 beats per minute; the “Change from baseline LSM +/− SE: Pulse sitting” value is 1.9 ± 3.87 beats per minute. In the data set on children with ASD [6], the “Change from baseline LSM +/− SE: Pulse standing” value is recorded as 4.0 ± 3.57 beats per minute, the “Change from baseline LSM +/− SE: Temperature” value is 0.2 ± 0.17 ° F and the “Changes from baseline in vital signs” value is on record as “No significant changes from baseline”.
For the compound `CN(C)CCn1cc(C(=O)N2CCC3(CC2)OCc2ccccc23)c2ccc(Cl)cc21` [RG7713], in data set [7], the “Improvements on overall composite tests” value is “non-significant”. Also, in data set [7] (setting [14]), the “Ability to detect lust on an affective speech recognition task” value is recorded as “reduced” and the “Biological motion orienting preference” value is reported as “increased”.
With `NC(=O)CC[C@@H]1NC(=O)[C@H](Cc2ccccc2)NC(=O)[C@H](Cc2ccc(O)cc2)NC(=O)CCSSC[C@@H](C(=O)N2CCC[C@H]2C(=O)N[C@H](CCCN=C(N)N)C(=O)NCC(N)=O)NC(=O)[C@H](CC(N)=O)NC1=O` [desmopressin, 1-deamino-8-D-arginine-vasopressin], the “Treatment of ASD in children” value in the data set on ASD in children is “not found to effectively treat ASD”.
